From patent publication US20090042726A1, “Novel Herbicides” (SYNGENTA LIMITED, priority 2005, published 2009)

System: Monocotyledonous and dicotyledonous test plants
Assay: Herbicidal action, application pre-emergence (Example B1)
Type: in vivo
Design: key: 10=total damage to plant; 0=no damage to plant
Settings: 1000 g/ha, evaluated after 9 or 13 days; for AGSTE herbicidal action (damage score 0-10): Agrostis-tenius; for AMARE herbicidal action (damage score 0-10): Amaranthus retroflexus; for DIGSA herbicidal action (damage score 0-10): Digitaria sanguinalis; for POATR herbicidal action (damage score 0-10): Poa trivialis; for SETIT herbicidal action (damage score 0-10): Setaria italica
Description: Monocotyledonous and dicotyledonous test plants were sown in sterilised standard soil in seed trays each having 96 cells. After one day (pre-emergence) under controlled conditions in a climatic chamber (cultivation at 23/17° C., day/night; 13 hours light; 50-60% humidity; after application at 24/19° C., day/night), the plants were treated with an aqueous spray solution of 1000 mg/l of the active ingredient used (including 10% DMSO as solvent). The plants were grown on in the climatic chamber until the test was evaluated (10=total damage to plant, 0=no damage to plant) after 9 or 13 days.

Compound | AGSTE herbicidal action (damage score 0-10) | AMARE herbicidal action (damage score 0-10) | DIGSA herbicidal action (damage score 0-10) | POATR herbicidal action (damage score 0-10) | SETIT herbicidal action (damage score 0-10)
Cn1cc(C(F)(F)F)c(CSC2=NOC(C)(C)C2F)n1 (centres unmarked) [4.01, 3-(4-fluoro-5,5-dimethyl-4,5-dihydro-isoxazol-3-ylsulfanyl-methyl)-1-methyl-4-trifluoromethyl-1H-pyrazole] | 0 | 8 | 9 | 0 | 9
CC(C)n1nc(C[S+]([O-])C2=NOC(C)(C)C2F)c(C(F)(F)F)n1 (single isomer, unassigned) [7.25] | 10 | 9 | 9 | 10 | –
COCCn1nc(CS(=O)(=O)C2=NOC(C)(C)C2F)c(C(F)(F)F)n1 (centres unmarked) [7.20] | 10 | 10 | 10 | 10 | –
Cn1nc(C(F)(F)F)c(C[S+]([O-])C2=NOC(C)(C)C2F)c1OC(F)F (single isomer, unassigned) [2.25] | 10 | 10 | 10 | 10 | 10
Cc1nc(C(F)(F)F)ccc1CS(=O)(=O)C1=NOC(C)(C)C1F (centres unmarked) [3.03] | 10 | 10 | 0 | 10 | 9
Cn1nc(C(F)(F)F)c(C[S+]([O-])C2=NOC(C)(C)C2Br)c1OCC(F)(F)F (mixture of isomers) [2.02] | 10 | 7 | 10 | 5 | 7
Cn1ncc(CS(=O)(=O)C2=NOC(C)(C)C2F)n1 (centres unmarked) [7.23] | 10 | 5 | 9 | 9 | –
Cn1nc(C(F)(F)F)c(CS(=O)(=O)C2=NOC(C)(C)C2Cl)c1OC(F)F (centres unmarked) [2.18] | 10 | 8 | 5 | 9 | 8
Cn1nc(C(F)(F)F)c(CS(=O)(=O)C2=NOC(C)(C)C2F)c1OCC(F)(F)F (centres unmarked) [2.11] | 10 | 10 | 9 | 10 | 4
C=CCn1nc(C[S+]([O-])C2=NOC(C)(C)C2F)c(C(F)(F)F)n1 (single isomer, unassigned) [7.09] | 10 | 10 | 10 | 10 | –
CCc1nn(C)nc1C[S+]([O-])C1=NOC(C)(C)C1F (mixture of isomers) [7.32] | 10 | 7 | 9 | 9 | –
CC(c1c(C(F)(F)F)nn(C)c1OC(F)F)S(=O)(=O)C1=NOC(C)(C)C1F (mixture of isomers) [Compound No. 2.27] | 10 | 10 | 10 | 10 | 10
Cn1nc(OCC(F)(F)F)c(C[S+]([O-])C2=NOC(C)(C)C2F)c1C(F)(F)F (single isomer, unassigned) [2.42] | 0 | 8 | 8 | 8 | 8
Cn1nc(C[S+]([O-])C2=NOC(C)(C)C2F)c(C(F)(F)F)c1C#N (single isomer, unassigned) [4.08] | 10 | 5 | 9 | 8 | –
Cc1nn(C(C)C)nc1C[S+]([O-])C1=NOC(C)(C)C1F (mixture of isomers) [7.38] | 10 | 6 | 7 | 7 | –
Cc1nc(C(F)(F)F)ccc1C[S+]([O-])C1=NOC(C)(C)C1F (mixture of isomers) [3.02] | 10 | 7 | 9 | 10 | 8
C=CCn1cc(C[S+]([O-])C2=NOC(C)(C)C2F)c(C(F)(F)F)n1 (mixture of isomers) [2.52] | 10 | 9 | 9 | 9 | –
COCCOc1c(C[S+]([O-])C2=NOC(C)(C)C2F)c(C(F)(F)F)nn1C (mixture of isomers) [2.58] | 10 | 10 | 10 | 10 | –
Cn1nc(C(F)(F)F)c(C[S+]([O-])C2=NOC(C)(C)C2Br)c1OC(F)F (centres unmarked) [Compound No. 2.05, 4-bromo-3-(5-difluoromethoxy-1-methyl-3-trifluoromethyl-1H-pyrazol-4-ylmethylsulfinyl)-5,5-dimethyl-4,5-dihydro-isoxazole] | 9 | 2 | 8 | 0 | 9
CC1(C)ON=C(S(=O)(=O)Cc2nn(C3CCCC3)nc2C(F)(F)F)C1F (centres unmarked) [7.14] | 10 | 8 | 9 | 8 | –
C=CCn1nc(CS(=O)(=O)C2=NOC(C)(C)C2F)c(C(F)(F)F)n1 (centres unmarked) [7.10] | 10 | 10 | 10 | 10 | –
Cn1cc(C[S+]([O-])C2=NOC(C)(C)C2F)c(C(F)(F)F)n1 (mixture of isomers) [2.33] | 10 | 6 | 9 | 9 | 9
Cn1nc(C(F)(F)F)c(Cl)c1CS(=O)(=O)C1=NOC(C)(C)C1F (centres unmarked) [6.07] | 10 | 7 | 9 | 10 | –
CC1(C)ON=C(SCc2cccnc2Cl)C1F (centres unmarked) [Compound No. 3.04] | 8 | 2 | 8 | 7 | –
